Measurements taken from patent publication US8471005B2 (Cephalon, Inc., priority 2008, dated 2013).
Read-outs that look alike come from different tables or passages of the source.

Assays:
[1] = molecular target: T1, ALK (Homo sapiens, UniProt Q9UM73); assay: ALK Kinase Assay (ELISA/TRF, PLC-γ substrate); assay type: biochemical; conditions: read-out: ALK Potency
T1 construct: host or cells: baculovirus expression system
Summary of the method: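 PLC-γ substrate coated at 10 μg/mL in TBS; reaction started with 30 ng/ml ALK, run 15 min at 37° C. Phosphoproduct detected by TRF with Eu-N1-labeled PT66 anti-phosphotyrosine antibody. IC50 from sigmoidal variable-slope fit of percent inhibition versus log concentration.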

[2] = molecular target: T2, JAK2 (Homo sapiens, UniProt O60674); assay: Recombinant Human JAK2 Kinase Assay (TRF); assay type: biochemical; conditions: read-out: JAK2 Potency
T2 construct: host or cells: baculovirus expression system
Summary of the method: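 Baculovirus-expressed JAK2 (15 ng/ml) phosphorylated a biotinylated 15-mer peptide captured on Neutravidin, in 20 mM HEPES pH 7.2, 0.2 μM ATP, 1 mM MnCl2, 0.1% BSA, 2.5% DMSO final, 20 min at room temperature. Phosphoproduct detected by time-resolved fluorescence with Eu-N1-labelled PY100 antibody.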

[3] = ALK kinase inhibition, 1 μM ATP
[4] = JAK2 kinase inhibition, 0.2 μM ATP

T1 sequence (Q9UM73 19-1620): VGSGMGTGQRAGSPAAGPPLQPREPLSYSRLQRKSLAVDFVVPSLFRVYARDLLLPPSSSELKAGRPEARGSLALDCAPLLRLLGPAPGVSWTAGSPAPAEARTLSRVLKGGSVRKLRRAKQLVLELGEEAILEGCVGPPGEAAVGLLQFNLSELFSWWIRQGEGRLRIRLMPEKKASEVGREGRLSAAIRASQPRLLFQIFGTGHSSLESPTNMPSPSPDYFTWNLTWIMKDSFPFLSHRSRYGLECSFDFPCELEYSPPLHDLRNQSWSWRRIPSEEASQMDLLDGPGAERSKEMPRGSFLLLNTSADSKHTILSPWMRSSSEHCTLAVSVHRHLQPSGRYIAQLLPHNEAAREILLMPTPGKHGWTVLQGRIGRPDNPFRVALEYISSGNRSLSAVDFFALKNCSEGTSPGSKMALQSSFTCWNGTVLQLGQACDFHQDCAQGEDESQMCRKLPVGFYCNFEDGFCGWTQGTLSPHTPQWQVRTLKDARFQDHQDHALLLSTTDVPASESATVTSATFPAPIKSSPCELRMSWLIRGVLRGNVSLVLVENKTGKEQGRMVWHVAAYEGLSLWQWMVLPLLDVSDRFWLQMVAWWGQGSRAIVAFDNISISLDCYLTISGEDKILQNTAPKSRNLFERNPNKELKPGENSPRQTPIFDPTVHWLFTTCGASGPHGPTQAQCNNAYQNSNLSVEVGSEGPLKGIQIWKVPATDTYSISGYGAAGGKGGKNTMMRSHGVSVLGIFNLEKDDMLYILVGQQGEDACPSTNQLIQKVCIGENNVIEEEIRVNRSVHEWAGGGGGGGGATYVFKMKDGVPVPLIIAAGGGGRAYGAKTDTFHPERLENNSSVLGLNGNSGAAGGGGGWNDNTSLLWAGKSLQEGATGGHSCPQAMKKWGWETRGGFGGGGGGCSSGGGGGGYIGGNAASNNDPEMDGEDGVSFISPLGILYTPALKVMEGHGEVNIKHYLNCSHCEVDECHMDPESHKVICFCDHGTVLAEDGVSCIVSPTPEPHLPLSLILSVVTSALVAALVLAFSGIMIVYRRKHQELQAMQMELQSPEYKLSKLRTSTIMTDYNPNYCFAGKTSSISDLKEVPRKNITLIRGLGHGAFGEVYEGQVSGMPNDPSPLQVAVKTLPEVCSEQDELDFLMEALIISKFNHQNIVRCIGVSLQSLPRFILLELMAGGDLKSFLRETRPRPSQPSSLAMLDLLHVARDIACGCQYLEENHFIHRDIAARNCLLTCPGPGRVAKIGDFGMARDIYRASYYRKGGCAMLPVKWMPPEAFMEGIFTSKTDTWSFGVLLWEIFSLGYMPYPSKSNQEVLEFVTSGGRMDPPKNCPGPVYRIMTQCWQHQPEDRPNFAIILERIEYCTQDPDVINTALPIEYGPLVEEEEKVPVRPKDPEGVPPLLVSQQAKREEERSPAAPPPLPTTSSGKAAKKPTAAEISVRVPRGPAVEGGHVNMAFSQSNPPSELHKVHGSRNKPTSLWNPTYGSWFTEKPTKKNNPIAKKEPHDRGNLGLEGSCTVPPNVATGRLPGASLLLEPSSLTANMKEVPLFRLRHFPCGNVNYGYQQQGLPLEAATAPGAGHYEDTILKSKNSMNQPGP
T2 sequence (O60674 whole entry): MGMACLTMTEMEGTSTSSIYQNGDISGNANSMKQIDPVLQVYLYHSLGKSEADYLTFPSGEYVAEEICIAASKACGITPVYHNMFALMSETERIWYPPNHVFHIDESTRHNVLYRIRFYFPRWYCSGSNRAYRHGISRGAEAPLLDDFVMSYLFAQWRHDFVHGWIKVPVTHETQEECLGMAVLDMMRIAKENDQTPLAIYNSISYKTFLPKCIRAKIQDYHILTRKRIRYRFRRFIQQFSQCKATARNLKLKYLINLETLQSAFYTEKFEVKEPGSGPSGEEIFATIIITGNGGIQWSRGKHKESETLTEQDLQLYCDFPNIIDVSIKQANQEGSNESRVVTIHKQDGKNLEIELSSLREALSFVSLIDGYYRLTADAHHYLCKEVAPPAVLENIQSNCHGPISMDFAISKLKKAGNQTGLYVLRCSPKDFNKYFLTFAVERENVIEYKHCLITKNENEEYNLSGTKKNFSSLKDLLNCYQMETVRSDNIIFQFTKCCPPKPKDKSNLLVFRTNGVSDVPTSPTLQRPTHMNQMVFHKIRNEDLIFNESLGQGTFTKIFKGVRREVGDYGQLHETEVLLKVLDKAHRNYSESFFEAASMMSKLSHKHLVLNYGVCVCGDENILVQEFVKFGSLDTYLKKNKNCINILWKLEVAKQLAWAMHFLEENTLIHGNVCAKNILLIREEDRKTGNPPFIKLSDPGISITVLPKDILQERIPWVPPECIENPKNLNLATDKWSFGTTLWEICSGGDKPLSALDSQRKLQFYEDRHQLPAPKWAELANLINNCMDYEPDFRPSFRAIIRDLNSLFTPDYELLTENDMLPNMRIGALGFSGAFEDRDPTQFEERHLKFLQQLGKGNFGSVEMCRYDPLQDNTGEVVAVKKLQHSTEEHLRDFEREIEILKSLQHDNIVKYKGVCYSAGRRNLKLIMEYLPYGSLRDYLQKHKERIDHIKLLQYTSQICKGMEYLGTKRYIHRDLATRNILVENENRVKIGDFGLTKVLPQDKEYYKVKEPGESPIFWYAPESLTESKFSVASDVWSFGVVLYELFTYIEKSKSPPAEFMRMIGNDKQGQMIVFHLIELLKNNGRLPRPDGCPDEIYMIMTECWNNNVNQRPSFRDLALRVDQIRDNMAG

| Molecule | IC50 ([1]; ALK Kinase Inhibition) [nM] | IC50 ([2]; JAK2 Kinase Inhibition) [nM] | IC50 [1, 3] [nM] | IC50 [2, 4] [nM] |
| --- | --- | --- | --- | --- |
| COc1cc(C2CCN(C3COC3)CC2)ccc1Nc1ncc2ccc(-c3ccccc3OC)n2n1 [Example 827, [2-Methoxy-4-(1-oxetan-3-yl-piperidin-4-yl)-phenyl]-[7-(2-methoxy-phenyl)-pyrrolo[2,1-f][1,2,4]triazin-2-yl]-amine] |  |  | < 100 | 100 to 1000 |
| COc1ccc(Cl)cc1-c1ccc2cnc(Nc3ccc(N4CCC(N5CCN(C)CC5)CC4)cc3)nn12 [Example 311, [7-(5-Chloro-2-methoxy-phenyl)-pyrrolo[2,1-f][1,2,4]triazin-2-yl]-{4-[4-(4-methyl-piperazin-1-yl)-piperidin-1-yl]-phenyl}-amine] | < 100 | < 100 |  |  |
| CN1CCCC1COc1cccc(Nc2ncc3ccc(-c4cccc(S(=O)(=O)NC(C)(C)C)c4)n3n2)c1 (centres unmarked) [Example 1005, N-tert-Butyl-3-{2-[3-(1-methyl-pyrrolidin-2-ylmethoxy)-phenylamino]-pyrrolo[2,1-f][1,2,4]triazin-7-yl}-benzenesulfonamide] |  |  | < 100 | < 100 |
| Clc1cccc(-c2ccc3cnc(Nc4ccc(N5CCCCC5)cc4)nn23)c1 [Example 49, [7-(3-Chloro-phenyl)-pyrrolo[2,1-f][1,2,4]triazin-2-yl]-(4-piperidin-1-yl-phenyl)-amine] | > 10000 | < 100 |  |  |
| COCCN1CCc2ccc(Nc3ncc4ccc(-c5ccccc5S(=O)(=O)N(C)C)n4n3)cc2CC1 [Example 31, 2-{2-[3-(2-Methoxy-ethyl)-2,3,4,5-tetrahydro-1H-benzo[d]azepin-7-ylamino]-pyrrolo[2,1-f][1,2,4]triazin-7-yl}-N,N-dimethyl-benzenesulfonamide] | 100 to 1000 | < 100 |  |  |
| COc1cc(C2CCN(C3COC3)CC2)ccc1Nc1ncc2ccc(-c3ccccc3N(C)S(C)(=O)=O)n2n1 [Example 828, N-(2-{2-[2-Methoxy-4-(1-oxetan-3-yl-piperidin-4-yl)-phenylamino]-pyrrolo[2,1-f][1,2,4]triazin-7-yl}-phenyl)-N-methyl-methanesulfonamide] |  |  | < 100 | 1000 to 10000 |
| COc1ccccc1-c1c(Br)c(Br)c2cnc(Nc3ccc(N4CCOCC4)cc3)nn12 [Example 110, [5,6-Dibromo-7-(2-methoxy-phenyl)-pyrrolo[2,1-f][1,2,4]triazin-2-yl]-(4-morpholin-4-yl-phenyl)-amine] | > 10000 | < 100 |  |  |
| CN1CCN(c2ccc(Nc3ncc4ccc(-c5ccccc5O)n4n3)cc2)CC1 [Example 1154, 2-{2-[4-(4-Methyl-piperazin-1-yl)-phenylamino]-pyrrolo[2,1-f][1,2,4]triazin-7-yl}-phenol] |  |  | < 100 | < 100 |
| CS(=O)(=O)c1cccc(-c2ccc3cnc(Nc4cccc(N5CCOCC5)c4)nn23)c1 [Example 184, [7-(3-Methanesulfonyl-phenyl)-pyrrolo[2,1-f][1,2,4]triazin-2-yl]-(3-morpholin-4-yl-phenyl)-amine] | 1000 to 10000 | < 100 |  |  |
| (±)-1-Fluoro-3-(4-{3-methoxy-4-[7-(2-methoxy-phenyl)-pyrrolo[2,1-f][1,2,4]triazin-2-ylamino]-phenyl}-piperidin-1-yl)-propan-2-ol [Example 825] |  |  | < 100 | 100 to 1000 |
| CN1CCN(CC2CCCN(c3ccc(Nc4ncc5ccc(-c6ccccc6N(C)S(C)(=O)=O)n5n4)cc3)C2)CC1 (centres unmarked) [Example 455, N-Methyl-N-[2-(2-{4-[3-(4-methyl-piperazin-1-ylmethyl)-piperidin-1-yl]-phenylamino}-pyrrolo[2,1-f][1,2,4]triazin-7-yl)-phenyl]-methanesulfonamide] | < 100 | < 100 |  |  |
| CN1CCN(c2ccc(Nc3ncc4ccc(-c5cccc(S(=O)(=O)NC(C)(C)C)c5)n4n3)cn2)CC1 [Example 1127, N-tert-Butyl-3-{2-[6-(4-methyl-piperazin-1-yl)-pyridin-3-ylamino]-pyrrolo[2,1-f][1,2,4]triazin-7-yl}-benzenesulfonamide] |  |  | 100 to 1000 | < 100 |
| COc1cc(C2CCN(CCF)CC2)ccc1Nc1ncc2ccc(-c3ccccc3OC)n2n1 [Example 791, {4-[1-(2-Fluoro-ethyl)-piperidin-4-yl]-2-methoxy-phenyl}-[7-(2-methoxy-phenyl)-pyrrolo[2,1-f][1,2,4]triazin-2-yl]-amine] |  |  | < 100 | 100 to 1000 |
| COc1ccccc1-c1cc(Br)n2nc(Nc3ccc(N4CCN(C)CC4)cc3)ncc12 [Example 102, [7-Bromo-5-(2-methoxy-phenyl)-pyrrolo[2,1-f][1,2,4]triazin-2-yl]-[4-(4-methyl-piperazin-1-yl)-phenyl]-amine] | > 10000 | 1000 to 10000 |  |  |
| COc1cc(N2CCN(C)CC2)ccc1Nc1ncc2ccc(-c3ccc(C#N)nc3)n2n1 [Example 77, 5-{2-[2-Methoxy-4-(4-methyl-piperazin-1-yl)-phenylamino]-pyrrolo[2,1-f][1,2,4]triazin-7-yl}-pyridine-2-carbonitrile] | 100 to 1000 | < 100 |  |  |

Results, then the molecule that gave them:

| IC50 ([1]; ALK Kinase Inhibition) [nM] | IC50 ([2]; JAK2 Kinase Inhibition) [nM] | IC50 [1, 3] [nM] | IC50 [2, 4] [nM] | Molecule |
| --- | --- | --- | --- | --- |
| < 100 | < 100 |  |  | CC(C)(C)NS(=O)(=O)c1cccc(-c2ccc3cnc(Nc4cccc(C5(O)CCNCC5)c4)nn23)c1 [Example 1550, N-tert-Butyl-3-{2-[3-(4-hydroxy-piperidin-4-yl)-phenylamino]-pyrrolo[2,1-f][1,2,4]triazin-7-yl}-benzenesulfonamide] |
|  |  | 100 to 1000 | 1000 to 10000 | COCCOc1ccccc1-c1ccc2cnc(Nc3ccc(C4CCN(CC(N)=O)CC4)cc3OC)nn12 [Example 1271, 2-[4-(3-Methoxy-4-{7-[2-(2-methoxy-ethoxy)-phenyl]-pyrrolo[2,1-f][1,2,4]triazin-2-ylamino}-phenyl)-piperidin-1-yl]-acetamide] |
|  |  | 100 to 1000 | 1000 to 10000 | COc1ccccc1-c1ccc2cnc(Nc3cccc(C(=O)N4CCN(C)CC4)c3OC)nn12 [Example 1231, {2-Methoxy-3-[7-(2-methoxy-phenyl)-pyrrolo[2,1-f][1,2,4]triazin-2-ylamino]-phenyl}-(4-methyl-piperazin-1-yl)-methanone] |
| 100 to 1000 | < 100 |  |  | COc1ccc(-c2ccc3cnc(Nc4ccc(N5CCN(CC(N)=O)CC5)c(F)c4)nn23)cn1 [Example 1415, 2-(4-{2-Fluoro-4-[7-(6-methoxy-pyridin-3-yl)-pyrrolo[2,1-f][1,2,4]triazin-2-ylamino]-phenyl}-piperazin-1-yl)-acetamide] |
| 100 to 1000 | < 100 |  |  | C[C@H](O)CN1CCC(c2ccc(Nc3ncc4ccc(-c5cccc(S(C)(=O)=O)c5)n4n3)cc2)CC1 [Example 1431, (S)-1-(4-{4-[7-(3-Methanesulfonyl-phenyl)-pyrrolo[2,1-f][1,2,4]triazin-2-ylamino]-phenyl}-piperidin-1-yl)-propan-2-ol] |
| 100 to 1000 | < 100 |  |  | CC1(C)C(=O)Nc2cc(Nc3ncc4ccc(-c5ccccn5)n4n3)ccc21 [Example 1563, 3,3-Dimethyl-6-(7-pyridin-2-yl-pyrrolo[2,1-f][1,2,4]triazin-2-ylamino)-1,3-dihydro-indol-2-one] |
|  |  | 100 to 1000 | > 10000 | COc1c(Nc2ncc3ccc(-c4ccccc4N(C)S(C)(=O)=O)n3n2)cccc1C(=O)N1CCN(CCO)CC1 [Example 1232, N-[2-(2-{3-[4-(2-Hydroxy-ethyl)-piperazine-1-carbonyl]-2-methoxy-phenylamino}-pyrrolo[2,1-f][1,2,4]triazin-7-yl)-phenyl]-N-methyl-methanesulfonamide] |
